Measured values from patent US8101774B2, “Ester derivatives and medicinal use thereof” (Japan Tobacco Inc., priority 2004, dated 2012).
Structures can show the parent of a compound that is named as a salt.

target: T1, Microsomal triglyceride transfer protein (MTP) from human small intestine microsome (Homo sapiens, UniProt P55157); assay: Inhibition test of interliposomal triglyceride (TG) transfer activity by MTP; assay type: biochemical; conditions: purified MTP from human small intestine microsome, 37° C., 1.5 hours
T1 construct: Human small intestine microsome was dialyzed against 10 mM phosphate buffer; tissue Tissue Transforming Technologies, Inc; host or cells: human small intestine microsome
How it was run: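 DEAE-purified human small intestine MTP (50 μL of 20 μg/mL) incubated 1.5 hours at 37° C with ^14C-triolein donor and unlabelled acceptor SUV liposomes in pH 7.4 Tris buffer with 0.5% BSA. Donor removed on DEAE cellulose; acceptor radioactivity counted, blank-corrected against DMSO control, giving percent inhibition and IC50.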

T1 sequence (P55157 19-894): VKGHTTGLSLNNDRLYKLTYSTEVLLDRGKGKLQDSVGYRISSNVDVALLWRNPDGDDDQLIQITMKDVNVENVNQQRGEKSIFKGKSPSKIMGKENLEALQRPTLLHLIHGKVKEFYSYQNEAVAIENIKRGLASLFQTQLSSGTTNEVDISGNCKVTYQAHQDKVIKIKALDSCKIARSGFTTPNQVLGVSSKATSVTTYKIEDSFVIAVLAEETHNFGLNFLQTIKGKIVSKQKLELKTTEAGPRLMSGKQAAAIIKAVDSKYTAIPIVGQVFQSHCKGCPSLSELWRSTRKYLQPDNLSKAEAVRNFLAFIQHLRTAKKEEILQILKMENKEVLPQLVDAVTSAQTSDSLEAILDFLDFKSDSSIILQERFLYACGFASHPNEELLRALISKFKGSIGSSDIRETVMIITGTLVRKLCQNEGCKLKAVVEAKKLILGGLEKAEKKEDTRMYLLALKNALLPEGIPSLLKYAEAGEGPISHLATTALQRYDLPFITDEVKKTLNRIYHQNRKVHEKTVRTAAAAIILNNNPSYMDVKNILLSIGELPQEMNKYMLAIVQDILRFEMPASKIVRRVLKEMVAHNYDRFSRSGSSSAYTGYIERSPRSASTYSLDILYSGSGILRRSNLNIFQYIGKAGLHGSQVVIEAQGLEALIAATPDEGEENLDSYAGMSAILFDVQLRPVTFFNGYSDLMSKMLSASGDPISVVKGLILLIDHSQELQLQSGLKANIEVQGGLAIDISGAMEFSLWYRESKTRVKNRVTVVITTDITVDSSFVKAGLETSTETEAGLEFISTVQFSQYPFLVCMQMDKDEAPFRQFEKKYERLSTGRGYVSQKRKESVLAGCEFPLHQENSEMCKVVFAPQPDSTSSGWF
T1 sequence (P07237 18-508 partner): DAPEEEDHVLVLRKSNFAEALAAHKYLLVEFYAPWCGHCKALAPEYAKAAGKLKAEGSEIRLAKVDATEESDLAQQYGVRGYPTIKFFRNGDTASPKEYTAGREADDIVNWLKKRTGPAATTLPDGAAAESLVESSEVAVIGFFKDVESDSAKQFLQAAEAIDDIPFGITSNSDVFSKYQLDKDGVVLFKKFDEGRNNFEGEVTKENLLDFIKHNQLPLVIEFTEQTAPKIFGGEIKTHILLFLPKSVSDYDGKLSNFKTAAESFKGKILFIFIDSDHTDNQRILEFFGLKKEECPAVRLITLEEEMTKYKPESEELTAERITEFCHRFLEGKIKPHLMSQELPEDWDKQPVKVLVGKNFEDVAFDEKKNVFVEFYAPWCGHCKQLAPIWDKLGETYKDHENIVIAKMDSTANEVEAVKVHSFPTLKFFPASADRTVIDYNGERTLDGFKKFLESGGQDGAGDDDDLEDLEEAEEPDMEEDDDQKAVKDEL

`CCc1cc(C(=O)OC)cc(C(=O)OC)c1OC(=O)CCCc1ccc(NC(=O)c2ccc(C)nc2-c2ccc(C(F)(F)F)cc2)c(C(=O)N(C)C)c1` [Compound 1-51, 4-[4-(3-dimethylcarbamoyl-4-{[6-methyl-2-(4-trifluoromethylphenyl)pyridine-3-carbonyl]amino}phenyl)butyryloxy]-5-ethylisophthalic acid dimethyl ester] and `CCOC(=O)c1cc(C)c(OC(=O)CCCc2ccc(NC(=O)c3ccc(C)nc3-c3ccc(C(F)(F)F)cc3)c(C(=O)N(C)C)c2)c(C(=O)OC)c1` [Compound 1-52, 4-[4-(3-dimethylcarbamoyl-4-{[6-methyl-2-(4-trifluoromethylphenyl)pyridine-3-carbonyl]amino}phenyl)butyryloxy]-5-methylisophthalic acid 1-ethyl ester 3-methyl ester] cannot be ordered by IC50: less than 10 nM for the first, less than 10 nM for the second.

`CCOC(=O)c1ccc(OC(=O)CCCc2ccc(NC(=O)c3ccc(C)nc3-c3ccc(C(F)(F)F)cc3)c(C(=O)N(C)C)c2)cc1` [Compound 1-71, 4-[4-(3-dimethylcarbamoyl-4-{[6-methyl-2-(4-trifluoromethylphenyl)pyridine-3-carbonyl]amino}phenyl)butyryloxy]benzoic acid ethyl ester] and `Cc1ccc(C(=O)Nc2ccc(CCCC(=O)Oc3ccc(C(=O)OC(C)C)cc3)cc2C(=O)N(C)C)c(-c2ccc(C(F)(F)F)cc2)n1` [Compound 1-63, 4-[4-(3-dimethylcarbamoyl-4-{[6-methyl-2-(4-trifluoromethylphenyl)pyridine-3-carbonyl]amino}phenyl)butyryloxy]benzoic acid isopropyl ester sulfate] cannot be ordered by IC50: less than 10 nM for the first, less than 10 nM for the second.

`CN(C)C(=O)c1cc(CCCC(=O)Oc2ccc(C(=O)OCC(=O)OCc3ccccc3)cc2)ccc1NC(=O)c1ccccc1-c1ccc(C(F)(F)F)cc1` [Compound 1-78] and `CN(C)C(=O)COC(=O)c1ccc(OC(=O)CCCc2ccc(NC(=O)c3ccccc3-c3ccc(C(F)(F)F)cc3)c(C(=O)N(C)C)c2)cc1` [Compound 1-85, 4-[4-(3-dimethylcarbamoyl-4-{(4′-trifluoromethylbiphenyl-2-carbonyl)amino}phenyl)butyryloxy]benzoic acid dimethylcarbamoylmethyl ester] cannot be ordered by IC50: less than 10 nM for the first, less than 10 nM for the second.

First: COC(=O)c1ccc(OC(=O)CCCc2ccc(NC(=O)c3ccccc3-c3ccc(C(F)(F)F)cc3)c(C(=O)N(C)C)c2)cc1OC [Compound 1-17, 4-(4-{3-dimethylcarbamoyl-4-[(4′-trifluoromethylbiphenyl-2-carbonyl)amino]phenyl}butyryloxy)-2-methoxybenzoic acid methyl ester]
Second: COC(=O)c1ccc(OC(=O)CCCc2ccc(NC(=O)c3ccccc3-c3ccc(C(F)(F)F)cc3)c(C(=O)N(C)C)c2)cc1C [Compound 1-14, 4-(4-{3-dimethylcarbamoyl-4-[(4′-trifluoromethylbiphenyl-2-carbonyl)amino]phenyl}butyryloxy)-2-methyl benzoic acid methyl ester]
The IC50 of the first is higher: 10 to 100 nM for the first, less than 10 nM for the second. The second is the more potent here.

`COC(=O)c1ccc(OC(=O)CCCc2ccc(NC(=O)c3ccccc3-c3ccc(C(F)(F)F)cc3)c(C(=O)N(C)C)c2)c(OC)c1` [Compound 1-12, 4-(4-{3-dimethylcarbamoyl-4-[(4′-trifluoromethylbiphenyl-2-carbonyl)amino]phenyl}butyryloxy)-3-methoxybenzoic acid methyl ester] and `COC(=O)c1ccc(OC(=O)CCCc2ccc(NC(=O)c3ccccc3-c3ccc(C(F)(F)F)cc3)c(C(=O)N(C)C)c2)c(F)c1` [Compound 1-10, 4-(4-{3-dimethylcarbamoyl-4-[(4′-trifluoromethylbiphenyl-2-carbonyl)amino]phenyl}butyryloxy)-3-fluoro benzoic acid methyl ester] cannot be ordered by IC50: less than 10 nM for the first, less than 10 nM for the second.

`CCCOC(=O)c1cc(Cl)c(OC(=O)CCCc2ccc(NC(=O)c3ccc(C)nc3-c3ccc(C(F)(F)F)cc3)c(C(=O)N(C)C)c2)c(OC)c1` [Compound 1-75, 3-chloro-4-[4-(3-dimethylcarbamoyl-4-{[6-methyl-2-(4-trifluoromethylphenyl)pyridine-3-carbonyl]amino}phenyl)butyryloxy]-5-methoxybenzoic acid propyl ester] and `COc1cc(C(=O)OCC(=O)N(C)C)cc(Cl)c1OC(=O)CCCc1ccc(NC(=O)c2ccc(C)nc2-c2ccc(C(F)(F)F)cc2)c(C(=O)N(C)C)c1` [Compound 1-113, 3-chloro-4-[4-(3-dimethylcarbamoyl-4-{[6-methyl-2-(4-trifluoromethylphenyl)pyridine-3-carbonyl]amino}phenyl)butyryloxy]-5-methoxybenzoic acid dimethylcarbamoylmethyl ester] cannot be ordered by IC50: less than 10 nM for the first, less than 10 nM for the second.

Compared with `CN(C)C(=O)c1cc(CC(=O)Oc2ccccc2)ccc1NC(=O)c1ccccc1-c1ccc(C(F)(F)F)cc1` [Compound 1-3, {3-dimethylcarbamoyl-4-[(4′-trifluoromethylbiphenyl-2-carbonyl)amino]phenyl}acetic acid phenyl ester], `Cc1noc(-c2ccc(OC(=O)CCCc3ccc(NC(=O)c4ccccc4-c4ccc(C(F)(F)F)cc4)c(C(=O)N(C)C)c3)cc2)n1` [Compound 1-2, 4-{3-dimethylcarbamoyl-4-[(4′-trifluoromethylbiphenyl-2-carbonyl)amino]phenyl}butyric acid 4-(3-methyl-[1,2,4]oxadiazol-5-yl)phenyl ester] is lower in IC50: 100 to 1000 nM for the first, less than 10 nM for the second. The second is the more potent here.

`CC(C)OCCOC(=O)c1ccc(OC(=O)CCCc2ccc(NC(=O)c3ccccc3-c3ccc(C(F)(F)F)cc3)c(C(=O)N(C)C)c2)cc1` [Compound 1-76, 4-[4-(3-dimethylcarbamoyl-4-{(4′-trifluoromethylbiphenyl-2-carbonyl)amino}phenyl)butyryloxy]benzoic acid 2-isopropoxyethyl ester] and `CN(C)C(=O)c1cc(CCCC(=O)Oc2ccc(C(=O)OCCN3CCCC3=O)cc2)ccc1NC(=O)c1ccccc1-c1ccc(C(F)(F)F)cc1` [Compound 1-91, 4-[4-(3-dimethylcarbamoyl-4-{(4′-trifluoromethylbiphenyl-2-carbonyl)amino}phenyl)butyryloxy]benzoic acid 2-(2-oxopyrrolidin-1-yl)ethyl ester] cannot be ordered by IC50: less than 10 nM for the first, less than 10 nM for the second.

`CN(C)C(=O)c1cc(CCCC(=O)Oc2ccc(C(=O)OCc3ccc(C(=O)OC(C)(C)C)cc3)cc2)ccc1NC(=O)c1ccccc1-c1ccc(C(F)(F)F)cc1` [Compound 1-103, 4-[4-(3-dimethylcarbamoyl-4-{(4′-trifluoromethylbiphenyl-2-carbonyl)amino}phenyl)butyryloxy]benzoic acid 4-(t-butoxycarbonyl)benzyl ester] and `COC(=O)c1ccc(OC(=O)CCCc2ccc(NC(=O)c3ccccc3-c3ccc(C(F)(F)F)cc3)c(C(=O)N(C)C)c2)c(C(=O)OC)c1` [Compound 1-33, 4-(4-{3-dimethylcarbamoyl-4-[(4′-trifluoromethylbiphenyl-2-carbonyl)amino]phenyl}butyryloxy)isophthalic acid dimethyl ester] cannot be ordered by IC50: less than 10 nM for the first, less than 10 nM for the second.

`Cc1cccc(COC(=O)c2ccc(OC(=O)CCCc3ccc(NC(=O)c4ccc(C)nc4-c4ccc(C(F)(F)F)cc4)c(C(=O)N(C)C)c3)cc2)n1` [Compound 1-100, 4-[4-(3-dimethylcarbamoyl-4-{[6-methyl-2-(4-trifluoromethylphenyl)pyridine-3-carbonyl]amino}phenyl)butyryloxy]benzoic acid 6-methylpyridin-2-ylmethyl ester] and `COC(=O)c1ccc(OC(=O)CCCc2ccc(NC(=O)c3ccc(C)nc3-c3ccc(C(F)(F)F)cc3)c(C(=O)N(C)C)c2)c(C(=O)OC)c1` [Compound 1-70, 4-[4-(3-dimethylcarbamoyl-4-{[6-methyl-2-(4-trifluoromethylphenyl)pyridine-3-carbonyl]amino}phenyl)butyryloxy]isophthalic acid dimethyl ester] cannot be ordered by IC50: less than 10 nM for the first, less than 10 nM for the second.

`COC(=O)c1cc(C)c(OC(=O)CCCc2ccc(NC(=O)c3ccc(C)nc3-c3ccc(C(F)(F)F)cc3)c(C(=O)N(C)C)c2)c(OC)c1` [Compound 1-46, 4-[4-(3-dimethylcarbamoyl-4-{[6-methyl-2-(4-trifluoromethylphenyl)pyridine-3-carbonyl]amino}phenyl)butyryloxy]-3-methoxy-5-methylbenzoic acid methyl ester] and `COC(=O)c1cc(OC)c(OC(=O)CCCc2ccc(NC(=O)c3ccc(C)nc3-c3ccc(C(F)(F)F)cc3)c(C(=O)N(C)C)c2)c(C(F)(F)F)c1` [Compound 1-47, 4-[4-(3-dimethylcarbamoyl-4-{[6-methyl-2-(4-trifluoromethylphenyl)pyridine-3-carbonyl]amino}phenyl)butyryloxy]-3-methoxy-5-trifluoromethylbenzoic acid methyl ester] cannot be ordered by IC50: less than 10 nM for the first, less than 10 nM for the second.

`CCc1cc(C(=O)OC)cc(F)c1OC(=O)CCCc1ccc(NC(=O)c2ccc(C)nc2-c2ccc(C(F)(F)F)cc2)c(C(=O)N(C)C)c1` [Compound 1-42, 4-[4-(3-dimethylcarbamoyl-4-{[6-methyl-2-(4-trifluoromethylphenyl)pyridine-3-carbonyl]amino}phenyl)butyryloxy]-3-ethyl-5-fluorobenzoic acid methyl ester] and `COC(=O)c1cc(C(=O)OC(C)C)ccc1OC(=O)CCCc1ccc(NC(=O)c2ccc(C)nc2-c2ccc(C(F)(F)F)cc2)c(C(=O)N(C)C)c1` [Compound 1-72, 4-[4-(3-dimethylcarbamoyl-4-{[6-methyl-2-(4-trifluoromethylphenyl)pyridine-3-carbonyl]amino}phenyl)butyryloxy]isophthalic acid 1-isopropyl ester 3-methyl ester] cannot be ordered by IC50: less than 10 nM for the first, less than 10 nM for the second.

For `CN(C)C(=O)c1cc(CCCC(=O)Oc2ccc(-c3nnn(C)n3)cc2)ccc1NC(=O)c1ccccc1-c1ccc(C(F)(F)F)cc1` [Compound 1-95, 4-(3-dimethylcarbamoyl-4-{(4′-trifluoromethylbiphenyl-2-carbonyl)amino}phenyl)butyric acid 4-(2-methyl-2H-tetrazol-5-yl)phenyl ester], the IC50 was less than 10 nM.
